Patent US10036068B1, “Diagnosis, prognosis, and treatment of myocardial infarction” (Vanderbilt University, priority 2012, dated 2018)

Assays:
Type in all cases: cell-based
human platelet [1] = test: PGE2 effect on human platelet aggregation and dense granule release, light transmission aggregometry
Text: (§1) This Examples describes a study conducted to characterize the regulation of thromboxane-dependent human platelet activation by PGE2, and particularly nanomolar concentrations of PGE2. Platelets were collected from individuals and studied by light transmission aggregometry. Next, it was observed how low nanomolar concentrations of PGE2 effect aggregation and dense granule release induced by sub-maximal concentrations of an agonist of the thromboxane receptor (U46,619), thrombin, collagen, and ADP.

human platelet [2] = test: as above; conditions: agonist concentrations producing full activation of the platelets (max); even micromolar PGE2; FIG. 1
thromboxane receptor = biological target: T1, thromboxane receptor (Homo sapiens, UniProt P21731); test: U46,619 dose-response (aggregation, ATP release) in responder and non-responder samples; conditions: responders vs non-responders; FIG. 4
T1 construct: Platelets were collected from individuals and studied by light transmission aggregometry; endogenous in cells; host or cells: human platelets from responder and non-responder individuals
T1 sequence (P21731 1-343): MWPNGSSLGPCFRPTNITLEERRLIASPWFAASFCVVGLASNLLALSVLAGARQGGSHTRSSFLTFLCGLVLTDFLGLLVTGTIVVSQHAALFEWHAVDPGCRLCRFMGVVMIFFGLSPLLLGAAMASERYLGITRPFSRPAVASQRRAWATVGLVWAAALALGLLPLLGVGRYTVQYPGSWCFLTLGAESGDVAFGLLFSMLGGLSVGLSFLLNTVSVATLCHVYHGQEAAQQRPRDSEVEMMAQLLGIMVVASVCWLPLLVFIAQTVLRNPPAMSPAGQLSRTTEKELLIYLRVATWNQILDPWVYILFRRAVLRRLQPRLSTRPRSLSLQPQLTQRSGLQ
Text: FIG. 4 includes plots of maximal aggregation (left) and ATP release (right) as a function of U46,610 concentration for both responder and non-responder individuals, and showing that there is little to no difference in U46,619 dose-response between the different phenotypic groups.
as §1
Samples from responders and non-responders were also exposed to different doses of U46,619.

Compound | individuals with strong inhibition of platelet activity in response to PGE2 (human platelet [1]; 76 individuals, FIG. 2) | individuals without significant inhibition of platelet aggregation in response to PGE2 (non-responders) (human platelet [1]; 76 individuals, FIG. 2) [%] | partial responders to PGE2 (human platelet [1]; 76 individuals, FIG. 2) [%] | effect on ADP-induced aggregation (human platelet [1]; FIG. 5) | effect on U46,610 aggregation (human platelet [1]; FIG. 5) | effect on collagen-induced aggregation (human platelet [1]; FIG. 5) | individuals in whom PGE2 affected the timing but not the final magnitude of aggregation (partial responders) (human platelet [1]; nanomolar PGE2) | individuals in whom PGE2 did not have detectable effects (nonresponders) (human platelet [1]; nanomolar PGE2) | individuals in whom PGE2 inhibits platelet aggregation (responders) (human platelet [1]; nanomolar PGE2, aggregation induced by U46,619 and PAR4-AP) | aggregation and dense granule release induced by sub-maximal U46,619 and thrombin (human platelet [1]; nanomolar PGE2, responder populations, FIG. 3) | effect on aggregation or granule release (human platelet [2]) | difference in U46,619 dose-response between phenotypic groups (thromboxane receptor)
CCCCC[C@H](O)/C=C/[C@H]1[C@H](O)CC(=O)[C@@H]1C/C=C\CCCC(=O)O [PGE2, prostaglandin E2] | approximately 28% | 55 | 17 | no effect | did have an effect | no effect | approximately 31% | approximately 42% | approximately 26% | capable of preventing aggregation and dense granule release | did not affect either aggregation or granule release | –
CCCCC[C@H](O)/C=C/[C@@H]1[C@@H](C/C=C\CCCC(=O)O)[C@H]2CO[C@@H]1C2 [U46,619] | – | – | – | – | – | – | – | – | – | – | – | No significant no difference
